The supplement of paper PMC4862054

How the values were obtained:
Conditions in all cases: 72 h
BT-549 = test system: BT-549
Description: (§1)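 Drug sensitivity and resistance testing (DSRT) of breast cancer cell lines in 384-well plates, 5 concentrations in 10-fold dilutions over a compound-specific 10,000-fold range. After 72 h, cytotoxicity was read by CellTox Green fluorescence and viability by CellTiter-Glo luminescence (multiplexed), normalised to DMSO and benzethonium chloride controls. EC50 is the inflection point of the fitted dose-response curve (bottom asymptote free, so it can be relative for partial curves) and is censored at the highest tested concentration. Rows with DSS 0 (no meaningful response) were excluded.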

MDA-MB-231 [1] = test system: MDA-MB-231
Description: as §1

HDQ-P1 [2] = test system: HDQ-P1
Description: as §1

CAL-148 [3] = test system: CAL-148
Description: as §1

CAL-51 = test system: CAL-51
Description: as §1

HCC1937 [4] = test system: HCC1937
Description: as §1

BT-474 [5] = test system: BT-474
Description: as §1

Hs578T [6] = test system: Hs578T
Description: as §1

MDA-MB-468 [7] = test system: MDA-MB-468
Summary of the method: (§2)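 Rows with a drug sensitivity score of zero were dropped, and EC50 was taken from the fitted percent-inhibition dose-response curve, censored at the highest concentration. Data were normalised on each plate to vehicle and a positive kill control and checked by Z'-factor. The assay seeded breast cancer cell lines in 20 µl onto 384-well plates pre-loaded with compound in 5 µl medium for 72 h, then added 2.5 µl CellTiter-Blue for 2 h at 37 °C and read fluorescence at 560/590 nm.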

MDA-MB-231 [8] = test system: MDA-MB-231; remark: listed apart in the source
Summary of the method: as §2

HCC1937 [9] = test system: HCC1937; remark: listed apart in the source
Summary of the method: as §2

BT-474 [10] = test system: BT-474; remark: listed apart in the source
Summary of the method: as §2

Hs578T [11] = test system: Hs578T; remark: listed apart in the source
Summary of the method: as §2

SK-BR-3 = test system: SK-BR-3
Summary of the method: as §2

HDQ-P1 [12] = test system: HDQ-P1; remark: listed apart in the source
Summary of the method: (§3)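 The plates used were 384-well plates holding compound at 5 concentrations in 10-fold steps across a compound-specific 10,000-fold range, into which breast cancer cell lines were seeded in 20 µl suspension. Following 72 h incubation, CellTox Green fluorescence was read at 485/520 nm, and CellTiter-Glo luminescence was read after 10 min at room temperature. Normalisation on each plate used 0.1 % DMSO and a positive kill control. Dose-response curves gave the EC50, which was censored at the top concentration.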

CAL-148 [13] = test system: CAL-148; remark: listed apart in the source
Summary of the method: as §3

HCC1937 [14] = test system: HCC1937; remark: listed apart in the source
Summary of the method: as §3

MDA-MB-453 [15] = test system: MDA-MB-453
Summary of the method: as §3

CAL-85-1 = test system: CAL-85-1
Summary of the method: as §3

HCC1599 [16] = test system: HCC1599
Summary of the method: as §3

MDA-MB-468 [17] = test system: MDA-MB-468; remark: listed apart in the source
Description: as §1

CAL-120 = test system: CAL-120
Description: as §1

MDA-MB-436 = test system: MDA-MB-436
Description: as §1

MDA-MB-453 [18] = test system: MDA-MB-453; remark: listed apart in the source
Description: as §1

HCC1143 = test system: HCC1143
Description: as §1

MFM-223 = test system: MFM-223
Description: as §1

MCF-10A = test system: MCF-10A
Description: as §1

HCC1599 [19] = test system: HCC1599; remark: listed apart in the source
Description: as §1

DU-4475 = test system: DU-4475
Description: as §1

| Structure (SMILES) | EC50, CellTiter-Blue viability (MDA-MB-468 [7]) [nM] | EC50, CellTiter-Blue viability (MDA-MB-231 [8]) [nM] | EC50, CellTiter-Blue viability (HCC1937 [9]) [nM] | EC50, CellTiter-Blue viability (BT-474 [10]) [nM] | EC50, CellTiter-Blue viability (SK-BR-3) [nM] | EC50, CellTiter-Glo (HCC1937 [14]) [nM] | EC50, CellTiter-Glo (MDA-MB-453 [15]) [nM] | EC50, CellTiter-Glo (HCC1599 [16]) [nM] | EC50, CellTox Green (BT-549) [nM] | EC50, CellTox Green (MDA-MB-231 [1]) [nM] | EC50, CellTox Green (HDQ-P1 [2]) [nM] | EC50, CellTox Green (CAL-148 [3]) [nM] | EC50, CellTox Green (CAL-51) [nM] | EC50, CellTox Green (HCC1937 [4]) [nM] | EC50, CellTox Green (BT-474 [5]) [nM] | EC50, CellTox Green (Hs578T [6]) [nM] | EC50, CellTiter-Blue viability (Hs578T [11]) [nM] | EC50, CellTiter-Glo (HDQ-P1 [12]) [nM] | EC50, CellTiter-Glo (CAL-148 [13]) [nM] | EC50, CellTiter-Glo (CAL-85-1) [nM] | EC50, CellTox Green (MDA-MB-468 [17]) [nM] | EC50, CellTox Green (CAL-120) [nM] | EC50, CellTox Green (MDA-MB-436) [nM] | EC50, CellTox Green (MDA-MB-453 [18]) [nM] | EC50, CellTox Green (HCC1143) [nM] | EC50, CellTox Green (MFM-223) [nM] | EC50, CellTox Green (MCF-10A) [nM] | EC50, CellTox Green (HCC1599 [19]) [nM] | EC50, CellTox Green (DU-4475) [nM] |
| --- | --- | --- | --- | --- | --- | --- | --- | --- | --- | --- | --- | --- | --- | --- | --- | --- | --- | --- | --- | --- | --- | --- | --- | --- | --- | --- | --- | --- | --- |
| COc1ccc(-c2cc3c(C)nc(N)nc3n([C@H]3CC[C@H](OCCO)CC3)c2=O)cn1 | 268 | 144 | 63 | 193 | 40.5 | 444 | 115 | 402 | 3870 | 575 | 1990 | 787 | 783 | 5410 | 983 | 6070 | 158 | 190 | 294 | 229 | – | – | – | – | – | – | – | – | – |
| CC(=O)OC[C@H]1O[C@@H]([S-])[C@H](OC(C)=O)[C@@H](OC(C)=O)[C@@H]1OC(C)=O.CCP(CC)CC.[Au+] [Auranofin] | – | – | – | – | – | 552 | 612 | 2110 | 712 | 1330 | 694 | 2060 | 186 | 926 | 646 | – | – | 1120 | 2190 | 723 | 412 | > 2500 | – | 1590 | > 2500 | 958 | – | – | – |
| Cc1c(CN2CCN(C(=O)[C@H](C)O)CC2)sc2c(N3CCOCC3)nc(-c3cnc(N)nc3)nc12 [GDC-0980] | 704 | 90.4 | 214 | 318 | 81.8 | 3130 | 226 | 1340 | – | – | 8340 | 820 | 2320 | – | 1390 | – | 257 | 452 | 701 | 628 | – | – | – | – | 1460 | 1000 | – | – | – |
| C[C@]12O[C@H](C[C@]1(O)CO)n1c3ccccc3c3c4c(c5c6ccccc6n2c5c31)CNC4=O [Lestaurtinib] | – | – | 369 | – | 813 | > 1000 | 3.03 | 238 | 1000 | > 1000 | – | – | – | – | 819 | 333 | – | 233 | – | 277 | – | – | 11.9 | – | – | – | – | 439 | – |
| CS(=O)(=O)N1CCN(Cc2cc3nc(-c4cccc5[nH]ncc45)nc(N4CCOCC4)c3s2)CC1 [Pictilisib] | – | – | – | – | – | 3840 | 508 | – | – | – | – | 293 | 2090 | – | 9300 | – | – | 657 | 1350 | 997 | – | – | – | – | – | 955 | 270 | – | – |
| O=C(NC[C@H](O)CO)c1ccncc1Nc1ccc(I)cc1F [Pimasertib] | – | – | – | – | – | 3070 | – | – | – | 16.6 | – | – | – | – | 2840 | – | – | 18.6 | 1010 | 1090 | – | 783 | – | – | – | – | – | – | 48.1 |
| CC[C@@]1(O)C(=O)OCc2c1cc1n(c2=O)Cc2cc3c(CN(C)C)c(O)ccc3nc2-1 [Topotecan] | 71.9 | 612 | 30.3 | – | 52 | 2740 | 1830 | 189 | – | 369 | > 10000 | 55.6 | 195 | 3070 | > 10000 | – | – | – | 221 | 755 | 2240 | 2570 | 2720 | – | – | – | 1880 | 748 | – |

Now from value to molecule, other results behind:

| EC50, CellTiter-Blue viability (MDA-MB-468 [7]) [nM] | EC50, CellTiter-Blue viability (MDA-MB-231 [8]) [nM] | EC50, CellTiter-Blue viability (HCC1937 [9]) [nM] | EC50, CellTiter-Blue viability (BT-474 [10]) [nM] | EC50, CellTiter-Blue viability (SK-BR-3) [nM] | EC50, CellTiter-Glo (HCC1937 [14]) [nM] | EC50, CellTiter-Glo (MDA-MB-453 [15]) [nM] | EC50, CellTiter-Glo (HCC1599 [16]) [nM] | Structure (SMILES) | EC50, CellTox Green (BT-549) [nM] | EC50, CellTox Green (MDA-MB-231 [1]) [nM] | EC50, CellTox Green (HDQ-P1 [2]) [nM] | EC50, CellTox Green (CAL-148 [3]) [nM] | EC50, CellTox Green (CAL-51) [nM] | EC50, CellTox Green (HCC1937 [4]) [nM] | EC50, CellTox Green (BT-474 [5]) [nM] | EC50, CellTox Green (Hs578T [6]) [nM] | EC50, CellTiter-Blue viability (Hs578T [11]) [nM] | EC50, CellTiter-Glo (HDQ-P1 [12]) [nM] | EC50, CellTiter-Glo (CAL-148 [13]) [nM] | EC50, CellTiter-Glo (CAL-85-1) [nM] | EC50, CellTox Green (MDA-MB-468 [17]) [nM] | EC50, CellTox Green (CAL-120) [nM] | EC50, CellTox Green (MDA-MB-436) [nM] | EC50, CellTox Green (MDA-MB-453 [18]) [nM] | EC50, CellTox Green (HCC1143) [nM] | EC50, CellTox Green (MFM-223) [nM] | EC50, CellTox Green (MCF-10A) [nM] | EC50, CellTox Green (HCC1599 [19]) [nM] | EC50, CellTox Green (DU-4475) [nM] |
| --- | --- | --- | --- | --- | --- | --- | --- | --- | --- | --- | --- | --- | --- | --- | --- | --- | --- | --- | --- | --- | --- | --- | --- | --- | --- | --- | --- | --- | --- |
| – | – | – | – | – | 5190 | 6910 | – | CC/C(=C(\c1ccc(O)cc1)c1ccc(OCCN(C)C)cc1)c1ccccc1 [4-hydroxytamoxifen] | – | 4260 | – | – | – | 1930 | – | – | – | – | – | 3340 | 92.3 | 9170 | 2800 | 9550 | – | – | – | – | – |
| 71.9 | 1180 | 344 | – | – | – | – | – | CO[C@@H](C(=O)N1Cc2[nH]nc(NC(=O)c3ccc(N4CCN(C)CC4)cc3)c2C1)c1ccccc1 [Danusertib] | > 10000 | – | 6850 | – | 348 | – | – | 477 | 1040 | 7430 | 448 | – | 10.2 | 5630 | 216 | – | – | – | > 10000 | – | – |
| – | 16.8 | – | – | – | 54.7 | – | – | Cc1nc(Nc2ncc(C(=O)Nc3c(C)cccc3Cl)s2)cc(N2CCN(CCO)CC2)n1 [Dasatinib] | 162 | 515 | – | – | 10.3 | – | – | 277 | 49.7 | 18.3 | – | 79.4 | – | – | – | – | – | – | 599 | – | – |
| 1930 | 2740 | 1960 | 5750 | 1050 | 567 | 1200 | 3020 | Nc1ccccc1NC(=O)c1ccc(CNc2nccc(-c3cccnc3)n2)cc1 [Mocetinostat] | 7700 | 1720 | 597 | 5350 | 1600 | > 10000 | 6830 | 629 | 2670 | 5520 | 2270 | 2710 | 961 | 4510 | 1340 | – | 3360 | – | – | 2100 | – |
| – | – | – | – | – | 199 | 11 | 71.3 | Cn1cc(CNCC2CCN(c3ncc(C(=O)NO)cn3)CC2)c2ccccc21 [Quisinostat] | – | 72.5 | 396 | 52.1 | 116 | – | 36 | 60.3 | – | 148 | 28.3 | 34.1 | 5.87 | 65.6 | – | > 1000 | 134 | 58.8 | – | 106 | 95.6 |
